From publication PMC11643690, “Chelating Properties of N6O-Donors Toward Cu(II) Ions: Speciation in Aqueous Environments and Catalytic Activity of the Dinuclear Complexes” (Molecules, 2024)

Assays:
[1] = Potentiometric titration of the Cu(II)/L-CH3 system (constants of in situ-formed complexes); type: binding; conditions: for logβi of in situ-formed Cu(II) complex species: overall constant, Cu(II):L 1:1 and 2:1, DMSO 5% (v/v)/H2O (HCl/KCl); for logKi of in situ-formed Cu(II) complex species: stepwise protonation constant
Description: The next step was the analysis of the system with L-CH3 and Cu(II). For a better investigation of the binging abilities of the L-CH3 ligand, the titration was performed both for the Cu(II):L-CH3 molar ratio = 1:1 and for 2:1. The overall (logβi) and stepwise (logKi) protonation constants of in situ-formed complexes are collected in Table 2. Depending on pH, L-CH3 forms mono- and di-nuclear complexes with Cu(II) ions, their relative abundance depending on the metal-to-ligand molar ratio.
Potentiometric measurements were carried out using the Metrohm pH-meter system (Herisau, Switzerland) with a Metrohm semi-micro combination electrode at 25 °C, calibrated in a hydrogen ion concentration using HCl. The ligands were dissolved in DMSO (5% v/v/H2O (HCl/KCl)) in order to obtain a concentration of 1 mM. The titrant (KOH 0.1M) was added with a micrometric syringe at 298 K in the pH range of 2.5–11.5 in an argon atmosphere. The stability constants and stoichiometry of the complexes were calculated using the titration curves and the SUPERQUAD and HYPERQUAD [47, 48].

[2] = cited from earlier work
[3] = UV–Vis titration of ligands with Cu(ClO4)2, binding constant by non-linear regression; conditions: global formation constant β1,2 (1 ligand : 2 Cu(II)); 1 µM ligand, 5% v/v MeOH/BBS 50 mM, pH 7.4, 25 °C
Description: To determine the overall equilibrium constant β1,2 (Kbind), a solution of the ligand was titrated with aliquots of 0.2 equivalents of Cu(II). Monitoring the formation of the complex via UV–Vis spectroscopy, the absorbance around 260 nm, 300 nm, 450 nm, and 700 nm increased during the titration (Figure 3a) in all cases. The latter two bands are visible only at high concentrations (>0.1 mM). These changes are caused by the formation of the complex and the disappearance of the free ligand.
In Figure 3b, the linear increase in the absorbance change (ΔAbs) at 240 nm, upon an increase in Cu(II) amount, is evident, leading to a sharp plateau around 2 equivalents. […] The binding constants were determined by non-linear regression analysis of Equation (2), (2) ∆A/b=(K1∆A1Cu+ β1,2∆A2Cu^2)/1+K1Cu+ β1,2Cu^2 which traces the correlation “ΔAbs/b vs. Cu(II) concentration,” according to K. Connors. In this equation, ΔA is the differences in absorbance at a certain wavelength, b is the optical path (1 cm), K1 is the constant for the formation of the complex 1:1, and β1,2 is the global formation constant (Kbind) for the complex 1:2. ΔA1 and ΔA2 are the differences in absorbance due to the formation of the 1:1 complex and the 1:2 complex, respectively. […]
UV-vis spectra of ligands and complexes were recorded in a quartz cuvette, with 1 cm of optical path. […]

[4] = Peroxidase-like (pro-oxidant) activity, OPD oxidation to DAP by H2O2; type: biochemical; conditions: 3.2 μM complex or salt, 0.32 mM OPD, 24 mM H2O2, PBS pH 7.8, 18 h, 25 °C
Source text: The pro-oxidant activity is named after another enzyme, the peroxidase. It is important to underline that this is a drawback of the studied complexes. Peroxidase, such as the already described […], decomposes hydrogen peroxide, producing water, but at the cost of oxidizing another substrate. Similarly, the complexes described here could remove hydrogen peroxide, catalyzing the oxidation of an organic substrate and leading to an enhancement of oxidative stress. Since all the catalytic measurements made so far were in the absence of an oxidizable substrate (excluding the catalyst itself), it is important to also verify this phenomenon. […] This variation in absorbance was monitored for 18 h via UV–Vis spectroscopy. […]
Figure S52: A) UV-vis spectra of [Cu2(L-RNH2)(H2O)2](ClO4)3 in a CAT assay measured every 10 minutes and centered at 450 nm. […] The arrow indicates the absorbance trend over time. B) Oxygen evolution (blue line) and absorbance at 244 nm (green dots) versus time.
For the peroxidase-like activity the variation of absorbance over time was monitored via UV-vis spectroscopy. The substrate OPD (o-phenylenediamine) was oxidized to DAP (2,3-diaminephenazine) by H2O2 in the presence of copper ions, leading to an increase of absorbance at 418 nm. […] The kinetic was recorded in a quartz cuvette with an optical path of 1 cm for 18h (acquiring a spectrum every 20 minutes) at 25°C. […]

Compound	logβi of in situ-formed Cu(II) complex species [1]	logKi of in situ-formed Cu(II) complex species [1]	further results
Cc1cc(CN(Cc2ccccn2)Cc2ccccn2)c(O)c(CN(Cc2ccccn2)Cc2ccccn2)c1.[Cu+2] [[CuHL]^2+]	17.02 ± 0.03	6.82	
Cc1cc(CN(Cc2ccccn2)Cc2ccccn2)c([O-])c(CN(Cc2ccccn2)Cc2ccccn2)c1.[Cu+2] [[CuL]^+]	10.20 ± 0.03	9.58	
Cu/Zn-SOD(human): native Cu/Zn superoxide dismutase enzyme			log(kSOD) [2]: 9.30
Cc1cc(CN(Cc2ccccn2)Cc2ccccn2)c([O-])c(CN(Cc2ccccn2)Cc2ccccn2)c1.[Cu+2].[Cu+2] [[Cu2L]^3+]	15.50 ± 0.03	9.26	
NCCc1cc(CN(Cc2ccccn2)Cc2ccccn2)c(O)c(CN(Cc2ccccn2)Cc2ccccn2)c1 [HL-RNH2]			Kbind [3]: > 10^12 M^−2
O.O.O.O.O.O.[Cu+2].[O-][Cl+3]([O-])([O-])[O-].[O-][Cl+3]([O-])([O-])[O-] [Cu(ClO4)2, copper perchlorate]			peroxidase-like (pro-oxidant) activity, Abs at 418 nm vs time [4]: much higher
